ChEMBL document CHEMBL1201862, “PubChem BioAssay data set” (2004)
Blank lines part the entries; values can stand above or below the molecule they belong to. The source made the active and inactive calls.

Tests used:
[1] = potency of ADAM10 substrate cleavage blockers – biochemical, QFRET, dose response (AID 743254);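 note: ADAM10 enzyme with the DM2 quenched FRET peptide as substrate; EDANS fluorescence gain as the protease cuts the substrate; inhibitor potency against ADAM10 proteolytic activity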
[2] = molecular target: T1, Short transient receptor potential channel 4 (Mus musculus, UniProt Q9QUQ5); assay: potentiation of DAMGO-evoked TRPC4 calcium signal – cell-based, HEK293 TRPC4/mu-opioid, Fluo-4 calcium, EC20 DAMGO, dose response (AID 434941); type: functional
T1 sequence (Q9QUQ5 whole entry): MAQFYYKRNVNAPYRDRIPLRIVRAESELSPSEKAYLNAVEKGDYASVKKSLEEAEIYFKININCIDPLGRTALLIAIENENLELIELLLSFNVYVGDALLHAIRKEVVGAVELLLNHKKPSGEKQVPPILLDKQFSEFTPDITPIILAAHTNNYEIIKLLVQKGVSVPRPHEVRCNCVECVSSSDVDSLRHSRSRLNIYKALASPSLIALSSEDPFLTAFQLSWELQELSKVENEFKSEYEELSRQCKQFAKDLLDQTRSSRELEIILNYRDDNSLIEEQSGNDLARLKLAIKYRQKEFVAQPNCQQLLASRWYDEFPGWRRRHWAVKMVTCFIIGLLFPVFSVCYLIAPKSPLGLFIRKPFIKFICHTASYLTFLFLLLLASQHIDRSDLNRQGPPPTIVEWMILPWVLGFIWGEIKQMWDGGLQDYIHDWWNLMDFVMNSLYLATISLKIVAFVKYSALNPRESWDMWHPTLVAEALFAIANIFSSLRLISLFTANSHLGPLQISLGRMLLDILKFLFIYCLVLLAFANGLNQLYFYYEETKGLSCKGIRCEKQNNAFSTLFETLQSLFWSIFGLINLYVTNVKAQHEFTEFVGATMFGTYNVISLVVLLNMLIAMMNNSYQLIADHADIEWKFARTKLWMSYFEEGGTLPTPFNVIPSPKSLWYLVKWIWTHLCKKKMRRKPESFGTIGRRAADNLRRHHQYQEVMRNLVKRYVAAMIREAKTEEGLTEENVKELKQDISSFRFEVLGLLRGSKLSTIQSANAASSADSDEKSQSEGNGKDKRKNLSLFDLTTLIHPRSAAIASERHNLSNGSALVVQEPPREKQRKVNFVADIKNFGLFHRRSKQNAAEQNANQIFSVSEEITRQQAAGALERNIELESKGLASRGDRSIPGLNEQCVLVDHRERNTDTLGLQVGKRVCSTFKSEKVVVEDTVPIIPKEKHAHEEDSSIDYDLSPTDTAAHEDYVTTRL

[3] = molecular target: Disintegrin and metalloproteinase domain-containing protein 17 (Homo sapiens, UniProt P78536); assay: inhibition of ADAM17 substrate cleavage – biochemical, quenched FRET substrate, counter-screen for ADAM10 exosite inhibitor project, dose response (AID 743253)
Estrogen receptor = molecular target: T2, Estrogen receptor (Homo sapiens, UniProt P03372); assay: ERα coactivator recruitment enhancers – biochemical, TR-FRET, ERα LBD, dose response (AID 737)
T2 sequence (P03372 whole entry): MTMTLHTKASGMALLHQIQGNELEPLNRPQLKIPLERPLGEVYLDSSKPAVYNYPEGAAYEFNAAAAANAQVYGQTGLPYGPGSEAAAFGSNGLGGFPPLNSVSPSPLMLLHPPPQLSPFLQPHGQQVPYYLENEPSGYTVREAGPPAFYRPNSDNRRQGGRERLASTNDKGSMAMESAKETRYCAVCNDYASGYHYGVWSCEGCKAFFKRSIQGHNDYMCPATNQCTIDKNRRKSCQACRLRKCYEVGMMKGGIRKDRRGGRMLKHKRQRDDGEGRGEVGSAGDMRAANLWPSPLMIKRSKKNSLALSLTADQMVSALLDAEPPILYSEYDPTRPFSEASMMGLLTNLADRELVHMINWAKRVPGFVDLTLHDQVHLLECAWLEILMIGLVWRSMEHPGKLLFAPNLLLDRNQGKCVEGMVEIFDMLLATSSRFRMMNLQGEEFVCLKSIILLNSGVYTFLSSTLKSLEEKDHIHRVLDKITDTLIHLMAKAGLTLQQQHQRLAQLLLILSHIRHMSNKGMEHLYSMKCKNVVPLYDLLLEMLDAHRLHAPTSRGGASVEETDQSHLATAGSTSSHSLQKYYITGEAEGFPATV

[4] = molecular target: G-protein coupled receptor 55 (Homo sapiens, UniProt Q9Y2T6); assay: selective activators of receptor GPR55 – imaging, U2OS cells, beta-arrestin-GFP redistribution, primary screen (AID 1961); type: functional
[5] = molecular target: T3, Small ubiquitin-related modifier 2 (Homo sapiens, UniProt P61956); assay: SUMO2 binding disruption by SUMO1 hits – biochemical, FRET, human SUMO2, uHTS hits, selectivity assay for SUMO1 interaction inhibitor project, dose response (AID 624384); type: functional; settings: read-out: IC50_Mean
[6] = molecular target: T4, Small ubiquitin-related modifier 1 (Homo sapiens, UniProt P63165); assay: SUMO1 protein-protein binding blockers, potency – biochemical, FRET, dose response (AID 624383); type: functional; settings: read-out: IC50_Mean
[7] = molecular target: T5, Rac GTPase-activating protein 1 (Homo sapiens, UniProt Q9H0H5); assay: blockers of MgcRacGAP-driven Rac1 GTP hydrolysis – biochemical, ADP Hunter fluorescence, primary and confirmatory, confirmation (AID 624330); type: functional
T5 sequence (Q9H0H5 whole entry): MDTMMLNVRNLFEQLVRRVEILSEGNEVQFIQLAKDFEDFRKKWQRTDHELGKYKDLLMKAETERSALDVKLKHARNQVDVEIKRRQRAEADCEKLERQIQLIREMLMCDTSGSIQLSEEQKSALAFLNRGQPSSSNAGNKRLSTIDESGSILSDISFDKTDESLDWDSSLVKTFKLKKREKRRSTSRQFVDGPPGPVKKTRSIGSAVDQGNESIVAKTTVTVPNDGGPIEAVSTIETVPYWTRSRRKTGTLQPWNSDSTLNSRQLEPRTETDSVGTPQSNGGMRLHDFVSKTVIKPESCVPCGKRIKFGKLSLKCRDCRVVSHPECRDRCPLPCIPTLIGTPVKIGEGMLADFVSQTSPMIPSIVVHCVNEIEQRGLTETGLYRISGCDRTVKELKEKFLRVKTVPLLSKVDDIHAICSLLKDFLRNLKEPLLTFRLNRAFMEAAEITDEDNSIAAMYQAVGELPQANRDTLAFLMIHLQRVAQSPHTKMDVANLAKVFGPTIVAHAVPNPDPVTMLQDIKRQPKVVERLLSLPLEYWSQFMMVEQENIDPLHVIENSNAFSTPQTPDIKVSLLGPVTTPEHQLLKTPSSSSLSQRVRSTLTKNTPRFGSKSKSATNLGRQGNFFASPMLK

[8] = molecular target: T4, Small ubiquitin-related modifier 1; assay: SUMO1 protein interaction blockers, potency – biochemical, fluorescence polarization, uHTS hits, dose response (AID 624382); type: functional; settings: read-out: IC50_Mean
HeLa = assay: viability loss in HeLa cells – cell-based, 24 h, cherry-picked samples, cytotoxicity control, dose response (AID 504726); type: functional; settings: Homo sapiens;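 note: potency for cytotoxicity as loss of luminescence signal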
[9] = molecular target: T6, Polyadenylate-binding protein 1 (Homo sapiens, UniProt P11940); assay: MLLE binding blockers, Cy5 peptide tracer – biochemical, fluorescence polarization, Cy5-PAM2 peptide, secondary, miRNA deadenylation inhibitor project, dose response (AID 602260); type: functional; settings: read-out: IC50_Mean
Hexokinase HKDC1 = molecular target: T7, Hexokinase HKDC1 (Homo sapiens, UniProt Q2TB90); assay: inhibition of HKDC1 glucose phosphorylation – biochemical, W721R variant, dose response (AID 504729); type: functional
T7 sequence (Q2TB90 whole entry): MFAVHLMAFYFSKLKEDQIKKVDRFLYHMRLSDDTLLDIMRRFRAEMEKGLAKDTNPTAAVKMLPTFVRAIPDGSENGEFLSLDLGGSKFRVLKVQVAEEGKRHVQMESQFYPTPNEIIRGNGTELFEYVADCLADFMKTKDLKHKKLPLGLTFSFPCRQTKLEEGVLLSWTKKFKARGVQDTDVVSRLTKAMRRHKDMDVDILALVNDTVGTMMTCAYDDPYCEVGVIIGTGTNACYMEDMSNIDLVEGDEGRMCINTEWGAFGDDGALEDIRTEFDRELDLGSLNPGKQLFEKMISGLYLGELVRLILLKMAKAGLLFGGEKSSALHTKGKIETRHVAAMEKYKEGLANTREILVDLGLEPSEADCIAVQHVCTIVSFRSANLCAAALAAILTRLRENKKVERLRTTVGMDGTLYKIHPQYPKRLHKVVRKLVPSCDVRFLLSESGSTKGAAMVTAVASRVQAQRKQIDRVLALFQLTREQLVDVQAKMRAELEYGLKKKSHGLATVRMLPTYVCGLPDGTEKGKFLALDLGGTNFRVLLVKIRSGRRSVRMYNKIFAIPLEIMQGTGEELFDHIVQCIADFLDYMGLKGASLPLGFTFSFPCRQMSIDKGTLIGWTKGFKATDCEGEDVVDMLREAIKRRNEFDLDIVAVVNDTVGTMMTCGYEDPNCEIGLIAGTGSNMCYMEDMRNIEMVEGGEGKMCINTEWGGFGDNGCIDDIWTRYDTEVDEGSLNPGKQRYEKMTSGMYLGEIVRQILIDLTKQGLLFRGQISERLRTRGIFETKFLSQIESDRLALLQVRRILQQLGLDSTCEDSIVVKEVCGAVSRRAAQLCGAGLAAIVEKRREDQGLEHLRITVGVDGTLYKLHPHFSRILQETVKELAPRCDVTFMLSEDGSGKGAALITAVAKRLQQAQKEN

[10] = molecular target: T6, Polyadenylate-binding protein 1; assay: MLLE domain peptide-binding blockers, IC50 – biochemical, fluorescence polarization, FITC-PAM2 peptide, dose response (AID 602259); type: functional; settings: read-out: IC50_Mean
Genome polyprotein = Genome polyprotein (dengue virus type 2, UniProt P29990); assay: flavivirus cap methylation enzyme inhibition – biochemical, confirmation dose response, primary screen (AID 588689); type: functional
Salmon testes DNA = assay: acridine orange-DNA binding displacement – biochemical, fluorescence polarization, cherry-picked samples, set 2, artefact control for KSHV LANA DNA-binding inhibitor project, dose response (AID 504727); design: species or system Salmonidae
ORF 73 = molecular target: T8, ORF 73 (Human herpesvirus 8, UniProt O40947); assay: KSHV LANA DNA-binding disruption – biochemical, fluorescence polarization, cherry-picked samples, dose response (AID 504725); design: species or system Human gammaherpesvirus 8;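 note: fluorescence polarization of a labeled DNA duplex reporting LANA DNA binding; potency is for inhibitors that block LANA binding to the DNA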
T8 sequence (O40947 whole entry): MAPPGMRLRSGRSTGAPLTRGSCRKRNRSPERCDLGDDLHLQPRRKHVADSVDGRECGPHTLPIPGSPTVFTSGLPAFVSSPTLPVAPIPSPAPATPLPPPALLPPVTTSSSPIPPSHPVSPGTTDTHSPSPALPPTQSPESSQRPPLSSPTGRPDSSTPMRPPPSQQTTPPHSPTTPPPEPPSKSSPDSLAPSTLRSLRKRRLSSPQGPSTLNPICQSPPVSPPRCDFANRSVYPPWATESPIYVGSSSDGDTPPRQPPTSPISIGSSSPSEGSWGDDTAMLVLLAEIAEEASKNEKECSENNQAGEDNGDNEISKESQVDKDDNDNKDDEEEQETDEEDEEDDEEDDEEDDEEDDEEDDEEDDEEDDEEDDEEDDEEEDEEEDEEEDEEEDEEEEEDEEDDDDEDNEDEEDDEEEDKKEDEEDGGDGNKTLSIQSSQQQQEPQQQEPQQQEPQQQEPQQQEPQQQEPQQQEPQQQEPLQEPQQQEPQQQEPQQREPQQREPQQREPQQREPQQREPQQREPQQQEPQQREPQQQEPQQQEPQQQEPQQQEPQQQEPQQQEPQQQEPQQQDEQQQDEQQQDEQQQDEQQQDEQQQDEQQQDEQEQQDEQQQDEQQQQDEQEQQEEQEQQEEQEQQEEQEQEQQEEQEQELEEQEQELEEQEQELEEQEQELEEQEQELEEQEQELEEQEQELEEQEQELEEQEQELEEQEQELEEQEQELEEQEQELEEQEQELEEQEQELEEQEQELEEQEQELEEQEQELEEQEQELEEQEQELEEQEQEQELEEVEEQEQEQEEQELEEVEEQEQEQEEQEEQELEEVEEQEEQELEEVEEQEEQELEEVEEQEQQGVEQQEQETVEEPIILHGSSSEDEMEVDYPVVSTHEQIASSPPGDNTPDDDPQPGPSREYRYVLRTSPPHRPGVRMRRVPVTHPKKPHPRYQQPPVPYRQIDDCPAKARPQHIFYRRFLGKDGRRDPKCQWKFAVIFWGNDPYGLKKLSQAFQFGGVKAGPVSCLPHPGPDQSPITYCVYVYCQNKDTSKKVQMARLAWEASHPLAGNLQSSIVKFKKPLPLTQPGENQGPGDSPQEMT

Troponin, cardiac muscle = Troponin, cardiac muscle (Homo sapiens, UniProt P19429+P45379+P63316); assay: compounds desensitizing RTF to calcium – biochemical, fluorescence, cardiac regulated thin filaments, triplicate IC50, dose response (AID 504742); type: protein-complex assay
[11] = molecular target: T3, Small ubiquitin-related modifier 2; assay: disruption of SUMO2 interaction with SIM peptide – biochemical, fluorescence polarization, uHTS hits, selectivity assay for SUMO1 interaction inhibitor project, dose response (AID 624385); type: functional; settings: read-out: IC50_Mean

IC50 [1]: > 69.5 µM (inactive)
EC50 [2]: 10.6 µM (active)
IC50 [3]: > 69.5 µM (inactive)
Structure (SMILES): O=C(NCc1ccccc1)C1=C[C@H](c2ccc(Br)cc2)C[C@H](OCc2ccc(CO)cc2)O1

EC50 (Estrogen receptor): 23.1 µM (active)
EC50 [4]: 20.4 µM (inactive)
Structure (SMILES): Cc1noc(C)c1COC(=O)c1cc2c3ccccc3n(C)c2s1

Structure (SMILES): O=S(=O)(O)c1ccc(O)c2cc(Nc3ccccc3)ccc12
IC50 [5]: 0.58 µM (active)
IC50 [6]: 0.88 µM (active)
IC50 [7]: 19.6 µM (active)
IC50 [8]: 11.6 µM (active)
AC50 (HeLa): 233 µM (active)
IC50 [9]: > 66 µM (inactive)
IC50 (Hexokinase HKDC1): 9.14 µM (active)
IC50 [10]: > 66 µM (inactive)
IC50 (Genome polyprotein): 20 µM (active)
AC50 (Salmon testes DNA): 98.3 µM (active)
AC50 (ORF 73): 6.72 µM (active)
IC50 (Troponin, cardiac muscle): 3.89 µM (active)
IC50 [11]: 7.83 µM (active)
